Assay results from ChEMBL document CHEMBL1155971, “Discovery of a novel class of isoxazoline voltage gated sodium channel blockers” (Bioorg Med Chem Lett, 2009).

Tests used:
[1] = target: T1, Sodium channel protein type 9 subunit alpha (Homo sapiens, UniProt Q15858); assay: Inhibition of human Nav1.7 channel expressed in HEK cells at 1 uM by FRET assay; format: cell-based; details: HEK293
Target sequence in this assay (Q15858 whole entry, looked up): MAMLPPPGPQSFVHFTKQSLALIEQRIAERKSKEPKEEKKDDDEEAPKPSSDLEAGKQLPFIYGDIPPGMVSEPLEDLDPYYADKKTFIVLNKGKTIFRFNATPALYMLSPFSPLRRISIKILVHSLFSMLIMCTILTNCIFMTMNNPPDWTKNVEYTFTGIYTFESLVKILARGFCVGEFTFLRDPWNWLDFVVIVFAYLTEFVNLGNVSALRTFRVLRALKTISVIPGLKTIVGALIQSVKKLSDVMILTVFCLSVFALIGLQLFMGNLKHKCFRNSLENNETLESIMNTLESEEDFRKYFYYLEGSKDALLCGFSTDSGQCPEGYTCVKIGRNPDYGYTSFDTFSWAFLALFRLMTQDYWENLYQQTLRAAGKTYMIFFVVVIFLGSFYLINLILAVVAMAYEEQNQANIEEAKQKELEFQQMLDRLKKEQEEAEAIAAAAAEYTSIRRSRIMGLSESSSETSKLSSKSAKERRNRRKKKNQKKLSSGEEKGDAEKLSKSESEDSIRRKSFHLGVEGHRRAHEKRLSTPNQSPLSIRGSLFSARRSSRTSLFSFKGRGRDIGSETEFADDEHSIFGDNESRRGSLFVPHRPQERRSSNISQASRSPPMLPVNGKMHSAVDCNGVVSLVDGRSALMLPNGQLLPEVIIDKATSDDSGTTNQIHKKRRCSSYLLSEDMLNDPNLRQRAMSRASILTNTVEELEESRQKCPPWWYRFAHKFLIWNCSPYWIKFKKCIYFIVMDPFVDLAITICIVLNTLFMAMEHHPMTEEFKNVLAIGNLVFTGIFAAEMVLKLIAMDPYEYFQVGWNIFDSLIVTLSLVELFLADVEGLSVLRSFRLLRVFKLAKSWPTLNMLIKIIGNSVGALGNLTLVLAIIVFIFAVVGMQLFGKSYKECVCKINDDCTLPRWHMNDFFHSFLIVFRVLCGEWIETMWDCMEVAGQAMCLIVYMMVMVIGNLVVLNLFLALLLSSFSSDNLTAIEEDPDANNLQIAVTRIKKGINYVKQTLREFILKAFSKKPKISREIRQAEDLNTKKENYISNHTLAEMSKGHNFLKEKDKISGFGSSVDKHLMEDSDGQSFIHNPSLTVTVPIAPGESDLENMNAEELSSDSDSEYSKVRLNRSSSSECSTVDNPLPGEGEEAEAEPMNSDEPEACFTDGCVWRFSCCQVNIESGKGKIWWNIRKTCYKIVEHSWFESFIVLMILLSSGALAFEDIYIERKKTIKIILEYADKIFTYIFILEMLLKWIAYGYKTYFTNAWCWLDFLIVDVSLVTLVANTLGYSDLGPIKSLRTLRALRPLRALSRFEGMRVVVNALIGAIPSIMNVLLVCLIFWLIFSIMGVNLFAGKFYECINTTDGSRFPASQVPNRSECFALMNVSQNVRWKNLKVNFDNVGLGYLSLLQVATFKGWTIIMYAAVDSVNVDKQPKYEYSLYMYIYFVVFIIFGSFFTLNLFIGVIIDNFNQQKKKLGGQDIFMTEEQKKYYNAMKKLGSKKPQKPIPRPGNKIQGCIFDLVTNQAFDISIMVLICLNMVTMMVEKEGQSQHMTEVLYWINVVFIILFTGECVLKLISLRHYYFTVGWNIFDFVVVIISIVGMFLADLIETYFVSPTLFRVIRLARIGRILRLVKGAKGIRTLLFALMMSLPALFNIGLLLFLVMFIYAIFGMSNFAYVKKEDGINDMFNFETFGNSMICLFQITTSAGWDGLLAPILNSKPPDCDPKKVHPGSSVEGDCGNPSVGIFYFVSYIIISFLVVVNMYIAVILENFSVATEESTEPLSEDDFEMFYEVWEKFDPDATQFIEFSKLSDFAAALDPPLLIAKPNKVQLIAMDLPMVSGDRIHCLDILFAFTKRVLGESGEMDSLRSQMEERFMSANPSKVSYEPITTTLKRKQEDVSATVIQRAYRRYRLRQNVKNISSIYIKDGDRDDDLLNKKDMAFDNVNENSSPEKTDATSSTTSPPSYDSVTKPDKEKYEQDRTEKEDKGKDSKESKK

[2] = test system: Rattus norvegicus; assay: Analgesic activity in Freund's complete adjuvant-induced rat pain model assessed as reversal of mechanic allodynia at 3 mg/kg, po after 3 hrs; format: functional
[3] = target: T1, Sodium channel protein type 9 subunit alpha; assay: Inhibition of human Nav1.7 channel expressed in HEK cells by FRET assay; format: cell-based, HEK293
Target sequence in this assay (Q15858 whole entry): as the sequence (Q15858 whole entry, looked up) above

[4] = test system: Rattus norvegicus; assay: Analgesic activity in spinal nerve ligation-induced rat neuropathic pain model assessed as reversal of allodynia at 10 mg/kg, po after 3 hrs; format: functional
[5] = test system: Rattus norvegicus; assay: Analgesic activity in Freund's complete adjuvant-induced rat pain model assessed as reversal of mechanic allodynia at 10 mg/kg, po after 3 hrs; format: functional
[6] = Bioavailability in Sprague-Dawley rat; format: ADME, organism-based; details: in vivo
[7] = Half life in Sprague-Dawley rat; format: ADME, organism-based; details: in vivo
[8] = Plasma clearance in Sprague-Dawley rat; format: ADME, organism-based
[9] = test system: Rattus norvegicus; assay: Analgesic activity in Freund's complete adjuvant-induced rat pain model assessed as reversal of mechanic allodynia at 3 mg/kg, po after 2 hrs; format: functional

Compound | inhibition [1] [%] | IC50 [3] [nM] | other results
c1ccc(-c2cc([C@@H]3CCC[C@H]3C3=NOC(c4ccccc4)C3)no2)cc1 (mixture of isomers) | 13 |  | 
CC1(c2ccccc2)CC([C@@H]2CCC[C@H]2C(=O)NCc2ccc(-c3ccccc3S(C)(=O)=O)cc2)=NO1 (mixture of isomers) | 0 |  | 
CS(=O)(=O)c1ccc(C2CC([C@@H]3CCC[C@H]3C(=O)NCc3ccc(OC(F)(F)F)cc3)=NO2)cc1 (mixture of isomers) | 26 |  | 
CC1(c2ccccc2)CC([C@@H]2CCC[C@H]2C(=O)NCc2ccc(OC(F)(F)F)cc2)=NO1 (mixture of isomers) [listing 1 of 2 here] | 63 |  | 
CC1(c2ccccc2)CC([C@@H]2CCC[C@H]2C(=O)NCc2ccc(OC(F)(F)F)cc2)=NO1 (single isomer, unassigned; diastereomer b) [listing 1 of 2 here] |  |  | Activity ([2]; 3 mg/kg): 26%
O=C(NCc1ccc(OC(F)(F)F)cc1)[C@@H]1CCC[C@H]1C1=NOC(c2ccc(Cl)cc2)C1 (mixture of isomers) | 92 | 430 | 
O=C(NCc1ccc(OC(F)(F)F)cc1)[C@@H]1CCC[C@H]1C1=NOC(c2ccccn2)C1 (mixture of isomers) | 0 |  | 
O=C(NCc1ccc(OC(F)(F)F)cc1)[C@@H]1CCC[C@H]1C1=NOC(c2cccc(Cl)c2)C1 (mixture of isomers) | 90 | 480 | 
CC1(c2ccccc2)CC([C@@H]2CCC[C@H]2C(=O)Nc2ccc(OC(F)(F)F)cc2)=NO1 (mixture of isomers) | 30 |  | 
CC1(c2ccccc2)CC([C@@H]2CCC[C@H]2C(=O)NCc2ccc(OC(F)(F)F)cc2)=NO1 (single isomer, unassigned; diastereomer b) [listing 2 of 2 here] | 37 |  | 
CC1(c2ccccc2)CC([C@@H]2CCC[C@H]2C(=O)NCc2ccc(OC(F)(F)F)cc2)=NO1 (single isomer, unassigned; diastereomer c) [listing 1 of 2 here] | 48 |  | 
CC1(c2ccccc2)CC([C@@H]2CCC[C@H]2C(=O)NCc2ccc(OC(F)(F)F)cc2)=NO1 (single isomer, unassigned; diastereomer a) [listing 1 of 2 here] |  | 960 | Activity ([2]; 3 mg/kg): 53%; Activity [4]: 21%
O=C(NCc1ccc(OC(F)(F)F)cc1)[C@@H]1CCC[C@H]1C1=NCC(c2ccccc2)O1 (mixture of isomers) | 71 | 620 | 
O=C(NCc1ccc(OC(F)(F)F)cc1)[C@@H]1CCC[C@H]1C1=NOC(CO)(c2ccccc2)C1 (mixture of isomers) | 23 |  | 
CC1(c2ccccc2)CC([C@@H]2CCC[C@H]2C(=O)NCc2ccc(OC(F)(F)F)cc2)=NO1 (single isomer, unassigned; diastereomer a) [listing 2 of 2 here] | 64 |  | 
COc1ccc(CNC(=O)[C@@H]2CCC[C@H]2C2=NOC(C)(c3ccccc3)C2)cc1 (relative stereo) | 16 |  | 
O=C(NCc1ccc(OC(F)(F)F)cc1)[C@@H]1CCC[C@H]1c1nc(-c2ccccc2)co1 (racemic) | 19 |  | 
CC1(c2ccccc2)CC([C@@H]2CCC[C@H]2C(=O)NCc2ccc(Cl)cc2)=NO1 (mixture of isomers) | 15 |  | 
CNC(=O)c1ccc(C2CC([C@@H]3CCC[C@H]3C(=O)NCc3ccc(OC(F)(F)F)cc3)=NO2)cc1 (mixture of isomers) | 14 |  | 
CS(=O)(=O)c1ccc(C2CC([C@@H]3CCC[C@H]3c3cc(-c4ccccc4)on3)=NO2)cc1 (mixture of isomers) | 43 |  | 
O=C(NCc1ccc(OC(F)(F)F)cc1)[C@@H]1CCC[C@H]1C1=NOC(c2ccc(OC(F)(F)F)cc2)C1 (mixture of isomers) | 93 | 500 | 
Clc1cc(Cl)cc(C2CC([C@@H]3CCC[C@H]3c3cc(-c4ccccc4)on3)=NO2)c1 (mixture of isomers) | 35 |  | 

Compound | inhibition [1] [%] | IC50 [3] [nM] | other results
O=C(NCc1ccc(OC(F)(F)F)cc1)[C@@H]1CCC[C@H]1c1ncc(-c2ccccc2)o1 (racemic) | 0 |  | 
COC(=O)c1cccc(C2CC([C@@H]3CCC[C@H]3C(=O)NCc3ccc(OC(F)(F)F)cc3)=NO2)c1 (mixture of isomers) | 75 | 710 | 
CC(C)Oc1ccc(CNC(=O)[C@@H]2CCC[C@H]2C2=NOC(C)(c3ccccc3)C2)cc1 (mixture of isomers) |  | 1500 | 
O=C(NCc1ccc(OC(F)(F)F)cc1)[C@@H]1CCC[C@H]1c1cc(-c2ccccc2)on1 (racemic) | 38 |  | 
CC(C)(C)Oc1ccc(CNC(=O)[C@@H]2CCC[C@H]2C2=NOC(C)(c3ccccc3)C2)cc1 (mixture of isomers) | 26 |  | 
O=C(NCc1ccc(OC(F)(F)F)cc1)[C@@H]1CCC[C@H]1C1=NOC(c2ccccc2)C1 (mixture of isomers) | 76 | 780 | 
CC1(c2ccccc2)CC([C@@H]2CCC[C@H]2C(=O)NCc2ccc(OC(F)(F)F)cc2)=NO1 (relative stereo) [listing 1 of 2 here] | 35 |  | 
CC1(c2ccccc2)CC([C@@H]2CCC[C@H]2C(=O)NCc2ccccc2)=NO1 (mixture of isomers) | 19 |  | 
NC(=O)c1ccc(C2CC([C@@H]3CCC[C@H]3C(=O)NCc3ccc(OC(F)(F)F)cc3)=NO2)cc1 (mixture of isomers) | 0 |  | 
CN(Cc1ccc(-c2ccccc2S(N)(=O)=O)cc1)C(=O)[C@@H]1CCC[C@H]1C(=O)NCc1ccc(OC(F)(F)F)cc1 (relative stereo) |  | 830 | Activity [2]: 31%; Activity [5]: 54%; Activity [4]: 35%
FC(F)(F)Oc1ccc(C2CC([C@@H]3CCC[C@H]3c3cc(-c4ccccc4)on3)=NO2)cc1 (mixture of isomers) | 18 |  | 
CC1(c2ccccc2)CC([C@@H]2CCC[C@H]2C(=O)Nc2ccc3ncccc3c2)=NO1 (mixture of isomers) | 17 |  | 
CN(Cc1ccc(-c2ccccc2S(C)(=O)=O)cc1)C(=O)[C@@H]1CCC[C@H]1C1=NOC(C)(c2ccccc2)C1 (mixture of isomers) | 0 |  | 
CC1(c2ccccc2)CC([C@@H]2CCC[C@H]2C(=O)NCc2ccc(C(F)(F)F)cc2)=NO1 (mixture of isomers) |  | 2500 | 
CC1(c2ccccc2)CC([C@@H]2CCC[C@H]2C(=O)NCc2ccc(OC(F)(F)F)cc2)=NO1 (relative stereo) [listing 2 of 2 here] |  |  | Activity ([2]; 3 mg/kg): 31%
CC1(c2ccccc2)CC([C@@H]2CCC[C@H]2C(=O)NCc2ccc(OC(F)(F)F)cc2)=NO1 (mixture of isomers) [listing 2 of 2 here] |  | 620 | bioavailability [6]: 16%; half-life [7]: 2.9 h; clearance [8]: 17.8 mL/min/kg; Activity [9]: 20%; Activity ([2]; 3 mg/kg): 48%
O=C(NCc1ccc(OC(F)(F)F)cc1)[C@@H]1CCC[C@H]1c1cc(-c2ccc(Cl)cc2)on1 (racemic) | 33 |  | 
O=C(O)c1ccc(C2CC([C@@H]3CCC[C@H]3C(=O)NCc3ccc(OC(F)(F)F)cc3)=NO2)cc1 (mixture of isomers) | 0 |  | 
CC1(c2ccccc2)CC([C@@H]2CCC[C@H]2C(=O)NCc2ccc(OC(F)(F)F)cc2)=NO1 (single isomer, unassigned; diastereomer c) [listing 2 of 2 here] |  | 1200 | Activity ([2]; 3 mg/kg): 20%
CC1(c2ccccc2)CC([C@@H]2CCC[C@H]2C(=O)NCc2ccc(OC(F)(F)F)cc2S(C)(=O)=O)=NO1 (mixture of isomers) | 13 |  | 
O=C(NCc1ccc(OC(F)(F)F)cc1)[C@@H]1CCC[C@H]1C1=NC(c2ccc(Cl)cc2)CO1 (mixture of isomers) | 56 | 970 | 
COC(=O)c1ccc(C2CC([C@@H]3CCC[C@H]3C(=O)NCc3ccc(OC(F)(F)F)cc3)=NO2)cc1 (mixture of isomers) | 87 | 340 | 
